Drawing on patent publication US20230295200A1 (REGENTS OF THE UNIVERSITY OF MICHIGAN, priority 2022, published 2023), this text covers Ki for 15 compounds.

One experiment has as its target T1, STAT6 protein (Homo sapiens, UniProt P42226).
T1 sequence (P42226 1-847): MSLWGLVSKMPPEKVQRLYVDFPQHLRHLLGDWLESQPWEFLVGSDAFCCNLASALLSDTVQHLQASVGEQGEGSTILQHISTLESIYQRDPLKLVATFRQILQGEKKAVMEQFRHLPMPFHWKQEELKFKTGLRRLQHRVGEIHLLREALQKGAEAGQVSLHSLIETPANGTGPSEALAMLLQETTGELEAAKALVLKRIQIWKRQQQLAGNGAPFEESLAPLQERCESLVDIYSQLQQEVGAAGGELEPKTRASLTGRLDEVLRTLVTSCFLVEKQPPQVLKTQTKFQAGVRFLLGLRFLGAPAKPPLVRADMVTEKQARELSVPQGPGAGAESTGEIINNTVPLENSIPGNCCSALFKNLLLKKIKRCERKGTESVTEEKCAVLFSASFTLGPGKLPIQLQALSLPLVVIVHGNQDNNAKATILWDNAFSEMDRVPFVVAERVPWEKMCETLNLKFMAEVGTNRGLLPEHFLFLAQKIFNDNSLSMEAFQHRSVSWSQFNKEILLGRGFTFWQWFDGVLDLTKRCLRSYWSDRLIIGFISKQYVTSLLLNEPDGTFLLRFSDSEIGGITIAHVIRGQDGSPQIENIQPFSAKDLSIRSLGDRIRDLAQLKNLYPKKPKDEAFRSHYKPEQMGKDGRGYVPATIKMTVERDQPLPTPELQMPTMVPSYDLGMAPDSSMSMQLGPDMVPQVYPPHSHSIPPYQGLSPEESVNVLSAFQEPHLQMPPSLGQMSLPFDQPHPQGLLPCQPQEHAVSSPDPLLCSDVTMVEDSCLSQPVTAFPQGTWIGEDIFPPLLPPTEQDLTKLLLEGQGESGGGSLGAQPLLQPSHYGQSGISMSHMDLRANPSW
Description: Fluorescence polarization (FP) binding assay, STAT6. Conditions: FP competition, 5 nM fluorescein-labeled tracer, 200 nM protein, PBS pH7.4; read-out: Binding STAT6. A digest of the protocol:
(§1)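 Fluorescence polarization is read after STAT5 or STAT6 protein (200 nM) and a fluorescein-labeled tracer (5 nM) equilibrate for 1 h at room temperature in DTT-containing PBS pH 7.4 with BGG and Tween-20. Inhibition constants are obtained by nonlinear curve fitting.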

The target of a further experiment is T2, STAT5A (Homo sapiens, UniProt P42229).
T2 sequence (P42229 1-794): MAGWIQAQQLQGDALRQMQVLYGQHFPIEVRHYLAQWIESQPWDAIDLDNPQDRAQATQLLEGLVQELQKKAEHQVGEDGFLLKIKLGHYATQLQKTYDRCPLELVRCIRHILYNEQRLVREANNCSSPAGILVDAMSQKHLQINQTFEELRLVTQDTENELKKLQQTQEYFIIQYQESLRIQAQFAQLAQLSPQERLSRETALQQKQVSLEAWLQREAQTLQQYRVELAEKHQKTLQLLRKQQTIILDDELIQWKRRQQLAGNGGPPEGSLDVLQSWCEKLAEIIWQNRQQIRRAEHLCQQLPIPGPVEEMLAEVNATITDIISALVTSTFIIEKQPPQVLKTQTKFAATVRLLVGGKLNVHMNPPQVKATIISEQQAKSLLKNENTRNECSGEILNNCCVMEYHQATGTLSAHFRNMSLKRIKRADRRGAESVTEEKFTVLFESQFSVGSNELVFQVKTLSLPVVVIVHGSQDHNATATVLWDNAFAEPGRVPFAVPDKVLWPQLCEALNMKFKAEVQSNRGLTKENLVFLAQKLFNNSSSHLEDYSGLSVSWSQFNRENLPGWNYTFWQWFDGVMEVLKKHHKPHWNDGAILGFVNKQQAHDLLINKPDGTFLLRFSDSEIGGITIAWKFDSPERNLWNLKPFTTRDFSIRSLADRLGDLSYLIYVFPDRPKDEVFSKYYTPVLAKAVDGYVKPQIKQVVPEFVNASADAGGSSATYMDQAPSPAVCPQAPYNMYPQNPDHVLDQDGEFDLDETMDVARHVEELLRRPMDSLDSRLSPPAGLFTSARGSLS
Description: Fluorescence polarization (FP) binding assay, STAT5A. As to conditions: FP competition, 5 nM fluorescein-labeled tracer, 200 nM protein, PBS pH7.4. The essentials:
as §1

As to `CC(=O)N1CCN(C(=O)[C@@H](NC(=O)c2cc3cc(C(F)(F)P(=O)(O)O)ccc3s2)C(C)(C)C)[C@H](C(=O)N2CC[C@H](c3ccccc3)C2)C1` [Compound 176, ((2-(((S)-1-((S)-4-acetyl-2-((R)-3-phenylpyrrolidine-1-carbonyl)piperazin-1-yl)-3,3-dimethyl-1-oxobutan-2-yl)carbamoyl)benzo[b]thiophen-5-yl)difluoromethyl)phosphonic acid], the Ki on STAT6 protein and on STAT5A was 1000 to 10000 nM in each case.

Take `CC(=O)N1CCN(C(=O)[C@@H](NC(=O)c2cc3cc(C(F)(F)P(=O)(O)O)ccc3s2)C(C)(C)C)[C@H](C(=O)N2CC[C@@H](c3ccccc3)C2)C1` [Compound 177, ((2-(((S)-1-((S)-4-acetyl-2-((S)-3-phenylpyrrolidine-1-carbonyl)piperazin-1-yl)-3,3-dimethyl-1-oxobutan-2-yl)carbamoyl)benzo[b]thiophen-5-yl)difluoromethyl)phosphonic acid]: the Ki at STAT6 protein was 1000 to 10000 nM; on STAT5A it was above 10000 nM.

For `CC(=O)N1CC[C@H]2CC[C@@H](C(=O)N3CCS(=O)(=O)C(c4ccccc4)C3)N2C(=O)[C@@H](NC(=O)c2cc3cc(C(F)(F)P(=O)(O)O)ccc3s2)C1` (stereo partly drawn) [Compound 178, ((2-(((5S,8S,10aR)-3-acetyl-8-(1,1-dioxido-2-phenylthiomorpholine-4-carbonyl)-6-oxodecahydropyrrolo[1,2-a][1,5]diazocin-5-yl)carbamoyl)benzo[b]thiophen-5-yl)difluoromethyl)phosphonic acid], the Ki fell in the range of 100 to 1000 nM at STAT6 protein and 1000 to 10000 nM on STAT5A.

Turning to `CC(C)(C)[C@H](NC(=O)c1cc2cc(C(F)(F)P(=O)(O)O)ccc2s1)C(=O)N1CCCC[C@H]1C(=O)N1CCO[C@H](c2ccccc2)C1` [Compound 179, ((2-(((S)-3,3-dimethyl-1-oxo-1-((S)-2-((R)-2-phenylmorpholine-4-carbonyl)piperidin-1-yl)butan-2-yl)carbamoyl)benzo[b]thiophen-5-yl)difluoromethyl)phosphonic acid], the figures for the Ki on STAT6 protein and at STAT5A were 100 to 1000 nM and 1000 to 10000 nM, respectively.

For the compound `CC(C)(C)[C@H](NC(=O)c1cc2cc(C(F)(F)P(=O)(O)O)ccc2s1)C(=O)N1CCCC[C@H]1C(=O)N1CCC[C@H](c2ccccc2)C1` [Compound 180, ((2-(((S)-3,3-dimethyl-1-oxo-1-((S)-2-((R)-3-phenylpiperidine-1-carbonyl)piperidin-1-yl)butan-2-yl)carbamoyl)benzo[b]thiophen-5-yl)difluoromethyl)phosphonic acid], the Ki on STAT6 protein is 100 to 1000 nM; at STAT5A it was 1000 to 10000 nM.

In the case of `CC(C)(C)[C@H](NC(=O)c1cc2cc(C(F)(F)P(=O)(O)O)ccc2s1)C(=O)N1CCCC[C@H]1C(=O)N1Cc2ccccc2C1` [Compound 181, (difluoro(2-(((S)-1-((S)-2-(isoindoline-2-carbonyl)piperidin-1-yl)-3,3-dimethyl-1-oxobutan-2-yl)carbamoyl)benzo[b]thiophen-5-yl)methyl)phosphonic acid], the Ki on STAT6 protein and on STAT5A was above 10000 nM each time.

Consider `CC(C)(C)[C@H](NC(=O)c1cc2cc(C(F)(F)P(=O)(O)O)ccc2s1)C(=O)N1CCCC[C@H]1C(=O)Nc1ncc(-c2ccccc2)s1` [Compound 182, ((2-(((S)-3,3-dimethyl-1-oxo-1-((S)-2-((5-phenylthiazol-2-yl)carbamoyl)piperidin-1-yl)butan-2-yl)carbamoyl)benzo[b]thiophen-5-yl)difluoromethyl)phosphonic acid], for which the values for the Ki on STAT6 protein and on STAT5A were 1000 to 10000 nM and 100 to 1000 nM, respectively.

In the case of `CC(C)(C)[C@H](NC(=O)c1cc2cc(C(F)(F)P(=O)(O)O)ccc2s1)C(=O)N1CCCCC[C@H]1C(=O)N1CCO[C@H](c2ccccc2)C1` [Compound 183, ((2-(((S)-3,3-dimethyl-1-oxo-1-((S)-2-((R)-2-phenylmorpholine-4-carbonyl)azepan-1-yl)butan-2-yl)carbamoyl)benzo[b]thiophen-5-yl)difluoromethyl)phosphonic acid], the Ki on STAT6 protein lay in the range of 100 to 1000 nM; on STAT5A it was 1000 to 10000 nM.

As for `CC(C)(C)[C@H](NC(=O)c1cc2cc(C(F)(F)P(=O)(O)O)ccc2s1)C(=O)N1CCCCC[C@H]1C(=O)N1CCC[C@H](c2ccccc2)C1` [Compound 184, ((2-(((S)-3,3-dimethyl-1-oxo-1-((S)-2-((R)-3-phenylpiperidine-1-carbonyl)azepan-1-yl)butan-2-yl)carbamoyl)benzo[b]thiophen-5-yl)difluoromethyl)phosphonic acid], the Ki on STAT6 protein lay within 100 to 1000 nM; on STAT5A it was 1000 to 10000 nM.

On to `CC(C)(C)[C@H](NC(=O)c1cc2cc(C(F)(F)P(=O)(O)O)ccc2s1)C(=O)N1CCCCC[C@H]1C(=O)N1CC[C@H](c2ccccc2)C1` [Compound 185, ((2-(((S)-3,3-dimethyl-1-oxo-1-((S)-2-((R)-3-phenylpyrrolidine-1-carbonyl)azepan-1-yl)butan-2-yl)carbamoyl)benzo[b]thiophen-5-yl)difluoromethyl)phosphonic acid], for which the Ki at STAT6 protein and on STAT5A was 1000 to 10000 nM in each case.

For `CC(C)(C)[C@H](NC(=O)c1cc2cc(C(F)(F)P(=O)(O)O)ccc2s1)C(=O)N1CCCCC[C@H]1C(=O)N1CC[C@@H](c2ccccc2)C1` [Compound 186, ((2-(((S)-3,3-dimethyl-1-oxo-1-((S)-2-((S)-3-phenylpyrrolidine-1-carbonyl)azepan-1-yl)butan-2-yl)carbamoyl)benzo[b]thiophen-5-yl)difluoromethyl)phosphonic acid], the Ki was above 10000 nM at STAT6 protein and 1000 to 10000 nM at STAT5A.

For the compound `CC(C)(C)[C@H](NC(=O)c1cc2cc(C(F)(F)P(=O)(O)O)ccc2s1)C(=O)N1CCCCC[C@H]1C(=O)N1Cc2ccccc2C1` [Compound 187, (difluoro(2-(((S)-1-((S)-2-(isoindoline-2-carbonyl)azepan-1-yl)-3,3-dimethyl-1-oxobutan-2-yl)carbamoyl)benzo[b]thiophen-5-yl)methyl)phosphonic acid], the Ki is 1000 to 10000 nM at STAT6 protein and above 10000 nM on STAT5A.

Turning to `CC(C)(C)[C@H](NC(=O)c1cc2cc(C(F)(F)P(=O)(O)O)ccc2s1)C(=O)N1CCCCC[C@H]1C(=O)Nc1ncc(-c2ccccc2)s1` [Compound 188, ((2-(((S)-3,3-dimethyl-1-oxo-1-((S)-2-((5-phenylthiazol-2-yl)carbamoyl)azepan-1-yl)butan-2-yl)carbamoyl)benzo[b]thiophen-5-yl)difluoromethyl)phosphonic acid], the Ki on STAT6 protein lay in the range of 1000 to 10000 nM; on STAT5A, 100 to 1000 nM.

For the compound `CC(C)(C)[C@H](NC(=O)c1cc2cc(C(F)(F)P(=O)(O)O)ccc2s1)C(=O)N1Cc2ccccc2CC1C(=O)N1CCO[C@H](c2ccccc2)C1` (stereo partly drawn) [Compound 189, ((2-(((2S)-3,3-dimethyl-1-oxo-1-(3-((R)-2-phenylmorpholine-4-carbonyl)-3,4-dihydroisoquinolin-2(1H)-yl)butan-2-yl)carbamoyl)benzo[b]thiophen-5-yl)difluoromethyl)phosphonic acid], the results for the Ki on STAT6 protein and at STAT5A were 100 to 1000 nM and 1000 to 10000 nM, respectively.

Turning to `CC(C)(C)[C@H](NC(=O)c1cc2cc(C(F)(F)P(=O)(O)O)ccc2s1)C(=O)N1Cc2ccccc2CC1C(=O)N1CCC[C@H](c2ccccc2)C1` (stereo partly drawn) [Compound 190, ((2-(((2S)-3,3-dimethyl-1-oxo-1-(3-((R)-3-phenylpiperidine-1-carbonyl)-3,4-dihydroisoquinolin-2(1H)-yl)butan-2-yl)carbamoyl)benzo[b]thiophen-5-yl)difluoromethyl)phosphonic acid], the Ki was in the range of 100 to 1000 nM at STAT6 protein and 1000 to 10000 nM on STAT5A.
